Experimental data published in PubChem BioAssay AID1963980 (Molecular Pharmacology Branch, DTP, NCI, 2024).

Tested on: 475296-252-R-J1-PDC spheroid viability
Assay: Anticancer human tumor 475296-252-R-J1-PDC patient-derived rectal carcinoma cell line growth inhibition [PI3K]
Details: second compound 0.0316 µM; first compound 3.16 µM; hits give low values; spheroids with HUVEC and MSC
How it was run: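 Tumor cells grown as multi-cell spheroids with HUVEC endothelial cells and MSC fibroblast-like stroma were treated with targeted agents combined with inavolisib, alpelisib, duvelisib or copanlisib. Doses fell in half-log steps from near clinical Cmax, else from 10 microM. Viability was measured.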
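Further: spheroids exposed to agents for seven days before readout.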

| SMILES | viability, T/C |
| --- | --- |
| CC(Cn1ccc(-c2ccc(C#N)c(Cl)c2)n1)NC(=O)c1cc(C(C)O)[nH]n1 (stereo unspecified) + Cc1nc(NC(=O)N2CCCC2C(N)=O)sc1-c1ccnc(C(C)(C)C(F)(F)F)c1 | 105% |
| Cn1ncc(Cl)c1-c1cc(C(=O)NC(CN)Cc2cccc(F)c2)sc1Cl (stereo unspecified) + Cc1nc(NC(=O)N2CCCC2C(N)=O)sc1-c1ccnc(C(C)(C)C(F)(F)F)c1 | 71.3% |
| Cn1nccc1Nc1nccc(-c2ccn(C(CO)c3ccc(Cl)c(F)c3)c(=O)c2)n1 (stereo unspecified) + Cc1nc(NC(=O)N2CCCC2C(N)=O)sc1-c1ccnc(C(C)(C)C(F)(F)F)c1 | 99.6% |

Same assay, conditions: second compound 0.0316 µM; first compound 10 µM; hits give low values; spheroids with HUVEC and MSC

| SMILES | viability, T/C |
| --- | --- |
| C#Cc1c(F)ccc2cc(O)cc(-c3ncc4c(N5CC6CCC(C5)N6)nc(OCC56CCCN5CC(F)C6)nc4c3F)c12 (stereo unspecified) + Cc1nc(NC(=O)N2CCCC2C(N)=O)sc1-c1ccnc(C(C)(C)C(F)(F)F)c1 | 66% |
| C=CC(=O)N1CCN(c2nc(=O)n(-c3c(C)ccnc3C(C)C)c3nc(-c4c(O)cccc4F)c(F)cc23)C(C)C1 (stereo unspecified) + Cc1nc(NC(=O)N2CCCC2C(N)=O)sc1-c1ccnc(C(C)(C)C(F)(F)F)c1 | 102% |
| CC(Cn1ccc(-c2ccc(C#N)c(Cl)c2)n1)NC(=O)c1cc(C(C)O)[nH]n1 (stereo unspecified) + Cc1nc(NC(=O)N2CCCC2C(N)=O)sc1-c1ccnc(C(C)(C)C(F)(F)F)c1 | 107% |
| Cn1ncc(Cl)c1-c1cc(C(=O)NC(CN)Cc2cccc(F)c2)sc1Cl (stereo unspecified) + Cc1nc(NC(=O)N2CCCC2C(N)=O)sc1-c1ccnc(C(C)(C)C(F)(F)F)c1 | 67.4% |
| Cn1nccc1Nc1nccc(-c2ccn(C(CO)c3ccc(Cl)c(F)c3)c(=O)c2)n1 (stereo unspecified) + Cc1nc(NC(=O)N2CCCC2C(N)=O)sc1-c1ccnc(C(C)(C)C(F)(F)F)c1 | 79.2% |

Same assay, conditions: second compound 0.1 µM; first compound 0.0316 µM; hits give low values; spheroids with HUVEC and MSC

| SMILES | viability, T/C |
| --- | --- |
| C#Cc1c(F)ccc2cc(O)cc(-c3ncc4c(N5CC6CCC(C5)N6)nc(OCC56CCCN5CC(F)C6)nc4c3F)c12 (stereo unspecified) + Cc1nc(NC(=O)N2CCCC2C(N)=O)sc1-c1ccnc(C(C)(C)C(F)(F)F)c1 | 87.1% |
| C=CC(=O)N1CCN(c2nc(=O)n(-c3c(C)ccnc3C(C)C)c3nc(-c4c(O)cccc4F)c(F)cc23)C(C)C1 (stereo unspecified) + Cc1nc(NC(=O)N2CCCC2C(N)=O)sc1-c1ccnc(C(C)(C)C(F)(F)F)c1 | 105% |
| CC(Cn1ccc(-c2ccc(C#N)c(Cl)c2)n1)NC(=O)c1cc(C(C)O)[nH]n1 (stereo unspecified) + Cc1nc(NC(=O)N2CCCC2C(N)=O)sc1-c1ccnc(C(C)(C)C(F)(F)F)c1 | 98.1% |
| Cn1ncc(Cl)c1-c1cc(C(=O)NC(CN)Cc2cccc(F)c2)sc1Cl (stereo unspecified) + Cc1nc(NC(=O)N2CCCC2C(N)=O)sc1-c1ccnc(C(C)(C)C(F)(F)F)c1 | 96.9% |
| Cn1nccc1Nc1nccc(-c2ccn(C(CO)c3ccc(Cl)c(F)c3)c(=O)c2)n1 (stereo unspecified) + Cc1nc(NC(=O)N2CCCC2C(N)=O)sc1-c1ccnc(C(C)(C)C(F)(F)F)c1 | 95.8% |

Same assay, conditions: second compound 0.1 µM; first compound 0.1 µM; hits give low values; spheroids with HUVEC and MSC

| SMILES | viability, T/C |
| --- | --- |
| C#Cc1c(F)ccc2cc(O)cc(-c3ncc4c(N5CC6CCC(C5)N6)nc(OCC56CCCN5CC(F)C6)nc4c3F)c12 (stereo unspecified) + Cc1nc(NC(=O)N2CCCC2C(N)=O)sc1-c1ccnc(C(C)(C)C(F)(F)F)c1 | 78.9% |
| C=CC(=O)N1CCN(c2nc(=O)n(-c3c(C)ccnc3C(C)C)c3nc(-c4c(O)cccc4F)c(F)cc23)C(C)C1 (stereo unspecified) + Cc1nc(NC(=O)N2CCCC2C(N)=O)sc1-c1ccnc(C(C)(C)C(F)(F)F)c1 | 75.8% |
| CC(Cn1ccc(-c2ccc(C#N)c(Cl)c2)n1)NC(=O)c1cc(C(C)O)[nH]n1 (stereo unspecified) + Cc1nc(NC(=O)N2CCCC2C(N)=O)sc1-c1ccnc(C(C)(C)C(F)(F)F)c1 | 99.7% |
| Cn1ncc(Cl)c1-c1cc(C(=O)NC(CN)Cc2cccc(F)c2)sc1Cl (stereo unspecified) + Cc1nc(NC(=O)N2CCCC2C(N)=O)sc1-c1ccnc(C(C)(C)C(F)(F)F)c1 | 85.2% |
| Cn1nccc1Nc1nccc(-c2ccn(C(CO)c3ccc(Cl)c(F)c3)c(=O)c2)n1 (stereo unspecified) + Cc1nc(NC(=O)N2CCCC2C(N)=O)sc1-c1ccnc(C(C)(C)C(F)(F)F)c1 | 87.3% |

Same assay, conditions: second compound 0.1 µM; first compound 0.316 µM; hits give low values; spheroids with HUVEC and MSC

| SMILES | viability, T/C |
| --- | --- |
| C#Cc1c(F)ccc2cc(O)cc(-c3ncc4c(N5CC6CCC(C5)N6)nc(OCC56CCCN5CC(F)C6)nc4c3F)c12 (stereo unspecified) + Cc1nc(NC(=O)N2CCCC2C(N)=O)sc1-c1ccnc(C(C)(C)C(F)(F)F)c1 | 88.1% |
| C=CC(=O)N1CCN(c2nc(=O)n(-c3c(C)ccnc3C(C)C)c3nc(-c4c(O)cccc4F)c(F)cc23)C(C)C1 (stereo unspecified) + Cc1nc(NC(=O)N2CCCC2C(N)=O)sc1-c1ccnc(C(C)(C)C(F)(F)F)c1 | 106% |
| CC(Cn1ccc(-c2ccc(C#N)c(Cl)c2)n1)NC(=O)c1cc(C(C)O)[nH]n1 (stereo unspecified) + Cc1nc(NC(=O)N2CCCC2C(N)=O)sc1-c1ccnc(C(C)(C)C(F)(F)F)c1 | 111% |
| Cn1ncc(Cl)c1-c1cc(C(=O)NC(CN)Cc2cccc(F)c2)sc1Cl (stereo unspecified) + Cc1nc(NC(=O)N2CCCC2C(N)=O)sc1-c1ccnc(C(C)(C)C(F)(F)F)c1 | 66.8% |
| Cn1nccc1Nc1nccc(-c2ccn(C(CO)c3ccc(Cl)c(F)c3)c(=O)c2)n1 (stereo unspecified) + Cc1nc(NC(=O)N2CCCC2C(N)=O)sc1-c1ccnc(C(C)(C)C(F)(F)F)c1 | 94.6% |

Same assay, conditions: second compound 0.1 µM; first compound 1 µM; hits give low values; spheroids with HUVEC and MSC

| SMILES | viability, T/C |
| --- | --- |
| C#Cc1c(F)ccc2cc(O)cc(-c3ncc4c(N5CC6CCC(C5)N6)nc(OCC56CCCN5CC(F)C6)nc4c3F)c12 (stereo unspecified) + Cc1nc(NC(=O)N2CCCC2C(N)=O)sc1-c1ccnc(C(C)(C)C(F)(F)F)c1 | 64.6% |
| C=CC(=O)N1CCN(c2nc(=O)n(-c3c(C)ccnc3C(C)C)c3nc(-c4c(O)cccc4F)c(F)cc23)C(C)C1 (stereo unspecified) + Cc1nc(NC(=O)N2CCCC2C(N)=O)sc1-c1ccnc(C(C)(C)C(F)(F)F)c1 | 82% |
| CC(Cn1ccc(-c2ccc(C#N)c(Cl)c2)n1)NC(=O)c1cc(C(C)O)[nH]n1 (stereo unspecified) + Cc1nc(NC(=O)N2CCCC2C(N)=O)sc1-c1ccnc(C(C)(C)C(F)(F)F)c1 | 105% |
